# Laboratory results published in patent US20150140088A1, “SPIROSTEROID SYSTEMS ACTING AS NEUROPROTECTIVE AND ANTI-INFLAMMATORY AGENTS” (priority 2011, published 2015).
# System: PC12 cells exposed to L-glutamate
# Experiment: Anti-glutamatergic effect on PC12 cells exposed to L-glutamate (MTT cellular vitality)
# Assay type: cell-based
# Details: 10 μM; PC12 cells exposed to L-glutamate (20 mM) for 24 h; result in words
# Procedure: PC12 constitute a neuron-like cell line widely employed in several models of neurological diseases. The patophysiological mechanisms which can be simulated in those in vitro models, allows the use of PC12 cells in evaluation of therapeutic candidates.
# The synthetic spirosteroids series (10 μM of each molecule) was evaluated on PC12 cells exposed to L-glutamate (20 mM) for 24 h. Previously, those cells were routinely cultivated in RPMI 1640 medium, supplemented with equine serum (10%) and fetal bovine serum (5%) in a 37° C. and 5% CO2 atmosphere. In the beginning of the experiment, cells were seeded in 96-well microplates at a cellular density of 150,000 cells/mL. After 24 h of exposition to glutamatergic damage and spirosteroids treatment, cellular vitality was determined with 3-(4,5-dimethylthiazol-2-yl)-2,5-diphenyltetrazolium bromide (MTT), which is metabolized by mitochondrial deshydrogenases in living cells. […] All molecules of the synthetic spirosteroids series were non cytotoxic at the concentration employed for the in vitro anti-glutamatergic assay (data no shown).
row,Compound,anti-glutamatergic and neuroprotector effect
1,"C[C@@H]1CC[C@@]2(OC1)O[C@H]1C[C@H]3[C@@H]4CC(=O)C5C[C@H](O)[C@H](O)C[C@]5(C)[C@H]4CC[C@]3(C)[C@H]1[C@@H]2C (stereo partly drawn) [2α,3α-dyhydroxy-(25R)-spirostan-6-one]",most active
2,"C[C@@H]1CC[C@@]2(OC1)O[C@H]1C[C@H]3[C@@H]4CC(=O)C5CC(=O)CC[C@]5(C)[C@H]4CC[C@]3(C)[C@H]1[C@@H]2C (stereo partly drawn) [3,6-dione-(25R)-spirostan]",most active
